Measurements from PubChem BioAssay AID1963955 (Xavier Lab, Infectious Disease and Microbiome Program, …, 2024).
Blank lines part the entries; values can stand above or below the molecule they belong to. Calls of active or inactive are those of the source.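 Rule for the calls: active = statistically significant rise in LC3 puncta area per cell versus the same autophagy inducer given alone; inactive = the rest.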

Key:
[1] = system: mouse BMDM GFP-LC3 puncta imaging, 4 h; assay: autophagy inducers by MAP1LC3 foci formation, imaging, murine bone marrow-derived macrophages, green fluorescent protein-tagged MAP1LC3 (AID 1963955)
[2] = as above; conditions: mouse BMDM GFP-LC3 puncta imaging, 4 h, hits give high values

- EC50 ([1]; no co-treatment, at 20 µM): 44.6 µM
- EC50 ([1]; no co-treatment, at 40 µM): 44.6 µM
- EC50 ([1]; with HBSS, at 20 µM): 22.7 µM
- EC50 ([1]; with HBSS, at 40 µM): 22.7 µM
Structure (SMILES): CCC(C)(C)C(=O)C(=O)N1CCCC[C@H]1C(=O)N[C@H](CCc1ccc(OC)cc1)C(=O)N1[C@@H]2CC[C@H]1CC(Nc1nc(NCCc3sc(N)nc3C)nc(N3CCn4ncnc4C3)n1)C2 (stereo not given in full)

Structure (SMILES): CCC(C)(C)C(=O)C(=O)N1CCCC[C@H]1C(=O)N[C@H](CCc1ccc(OC)cc1)C(=O)N1[C@@H]2CC[C@H]1CC(Nc1nc(NCCc3ccccc3)nc(N3CCn4ncnc4C3)n1)C2 (stereo not given in full)
- LC3 puncta area per cell ([2]; at 20 µM, no co-treatment): 5.15 um2/cell (inactive)
- LC3 puncta area per cell ([2]; at 20 µM, with HBSS): 10.8 um2/cell (inactive)
- LC3 puncta area per cell ([2]; at 40 µM, no co-treatment): 5.34 um2/cell (inactive)
- LC3 puncta area per cell ([2]; at 40 µM, with HBSS): 11.1 um2/cell

Structure (SMILES): CS(C)=O
- LC3 puncta area per cell ([2]; no co-treatment): 7.38 um2/cell (inactive)
- LC3 puncta area per cell ([2]; with HBSS): 9.2 um2/cell
